Assay results as given in patent US20090076278A1, “METHINE DYES AND USES OF THE SAME” (KABUSHIKI KAISHA HAYASHIBARA SEIBUTSU KAGAKU KENKYUJO, priority 2006, published 2009).

Assays:
Assay type in all cases: physicochemical
[1] = DSC analysis for decomposition point (thermal property); conditions: DSC analysis of crystal
Description: As described above, the methine dyes of the present invention have main absorption maxima in the region at wavelengths of longer than 300 nm, usually, at wavelengths of around 350 to 850 nm, and have distinctly high molecular absorption coefficients (may be abbreviated as “ε”) of 1.0×10^5 or more, usually, 1.5×10^5 or more at their absorption maxima, and efficiently absorb the light in such wavelength region. […] As is well known, it is said that the decomposition point and the glass transition point of an organic compound are recognized as important indexes of their thermal stability, i.e., compounds with higher decomposition points and glass transition points tend to have a higher thermal stability. Accordingly, the methine dyes of the present invention can be quite advantageously used as light-absorption materials which absorb the light in the ultra violet and the infrared regions to shield it, or use the light energy of the above regions in various fields of, for example, information recordings, solar energy generations, electric equipments, electric communications apparatuses, optical equipments, clothes, building/bedding/decorating products, health goods, and agricultural materials. The decomposition points of the methine dyes can be determined by conventional […] (abbreviated as “DSC” herein after).
Conventional measurement of the dye for visible absorption spectrum in methanol solution as an absorption property gave a main absorption maximum at a wavelength of about 544 nm (E=1.94×10^5). ^1H-NMR Analysis of the methine dye in dimethyl sulfoxide-d^6 solution gave a chemical shift δ (ppm, TMS) at peaks of 0.15 to 0.32 (2H, m, —CH2—), 0.65 to 0.82 (2H, m, —CH2—), (6H, t, CH3—), 1.23 (6H, t, CH3—), 1.62 (6H, s, CH3—), 1.80 (6H, s, CH3—), 1.87 (6H, s, CH3—), 1.85 to 2.07 (2H, m, —CH2—), 2.70 to 2.90 (2H, m, —CH2—), 3.95 to 4.20 (8H, m, —CH2—), 6.39 (2H, d, —CH═), 6.48 (2H, d, —CH═), 7.51 (2H, t, ArH), 7.59 (2H, t, ArH), 7.61 (2H, d, ArH), 7.66 (2H, t, ArH), 7.75 (2H, d, ArH), 7.78 (2H, t, ArH), 8.01 (4H, t, ArH), 8.13 (4H, t, ArH), 8.16 (2H, d, ArH), 8.24 (2H, d, ArH), and 8.32 (2H, t, —CH═).

[2] = Solubility of methine dye in TFP; conditions: for Solubility: dissolved in 100 ml of TFP at 20° C.; for solubility in TFP (in words): 1.6% by weight in TFP for forming a recording layer
Procedure: For the methine dyes of the present invention as listed in Table 1, they were respectively dissolved in 100 ml of TFP at 20° C. and, as solubility, measured for the mass of each methine dye. In parallel, conventionally known related compounds represented by Chemical Formulae 65 to 67 were similarly measured for their solubilities.

[3] = Light tolerance of dye thin membrane under xenon lamp exposure; conditions: thin membrane on glass substrate; 7.5 kw xenon lamp, two hours, 180 W/m^2; transmittance at absorption maximum wavelength (about 550 nm)
Procedure: Any one of the methine dyes represented by Chemical Formulae 1 to 3, 8 and 36, obtained by the methods in Examples 4 to 8, was weighed by 15 mg, added to three milliliters of TFP, and dissolved by energizing with ultra sound for five minutes at ambient temperature. The resulting solution was dropped to homogeneity over either side of a polished glass substrate (5 cm×5 cm) by spin coating, and the substrate was rotated at 1,000 rμm for one minute to homogeneously apply the solution over the substrate, and dried by successively blowing hot air and cool air thereunto in this order to form a thin membrane of any one of the methine dyes of the present invention over the glass substrate.
The transmittance (T0) of the methine dyes in the form of a thin layer was measured at their absorption maximum wavelengths (about 550 nm), and a 7.5 kw xenon lamp was installed apart from the glass substrate at a prescribed distance to expose the glass substrate for two hours with an irradiation energy of 180 W/m^2 when measured on the surface of the substrate while blowing cool air thereunto. Thereafter, the transmittance (T) at each of their absorption maximum wavelengths was instantly remeasured, and the residual percentage (%) of each dye was calculated by substituting the measured transmittances T and To Formula 1. In parallel, the thin membranes formed with the related compounds represented by Chemical Formulae 65 to 68 were similarly treated as in the above and respectively measured for their transmittances at their absorption maximum wavelengths.

decomposition point [1] | Solubility [2] [% by weight] | solubility in TFP (in words) [2] | Compound | Residual percentage (%) of dye [3] [%]
about 211 °C | 2.68 |  | CCN1C(=CC=CC2=[N+](CC)c3ccc4ccccc4c3C2(C)CCCCC2(C)C(C=CC=C3N(CC)c4ccc5ccccc5c4C3(C)Cc3ccccc3)=[N+](CC)c3ccc4ccccc4c32)C(C)(Cc2ccccc2)c2c1ccc1ccccc21.F[P-](F)(F)(F)(F)F.F[P-](F)(F)(F)(F)F (stereo not shown) [Chemical Formula 2] | 66
about 235 °C | 2.47 |  | CCN1C(=CC=CC2=[N+](CC)c3ccc4ccccc4c3C2(C)CCCCC2(C)C(C=CC=C3N(CC)c4ccc5ccccc5c4C34CCCCC4)=[N+](CC)c3ccc4ccccc4c32)C2(CCCCC2)c2c1ccc1ccccc21.F[P-](F)(F)(F)(F)F.F[P-](F)(F)(F)(F)F (stereo not shown) [Chemical Formula 3] | 64
 | 2.58 |  | CCN1C(=CC=CC2=[N+](CC)c3ccc4ccccc4c3C2(C)CCCCCCC2(C)C(C=CC=C3N(CC)c4ccc5ccccc5c4C3(C)C)=[N+](CC)c3ccc4ccccc4c32)C(C)(C)c2c1ccc1ccccc21.F[P-](F)(F)(F)(F)F.F[P-](F)(F)(F)(F)F (stereo not shown) [Chemical Formula 8] | 75
about 285 °C |  |  | CN1C(=CC2=[N+](C)c3ccc4ccccc4c3C2(C)CCCCC2(C)C(C=C3Oc4ccccc4N3C)=[N+](C)c3ccc4ccccc4c32)Oc2ccccc21.[O-][Cl+3]([O-])([O-])[O-].[O-][Cl+3]([O-])([O-])[O-] (stereo not shown) [Chemical Formula 21] | 
about 300 °C |  |  | C[N+]1=C(C=CNc2ccccc2)C(C)(CCCCC2(C)C(C=CNc3ccccc3)=[N+](C)c3ccc4ccccc4c32)c2c1ccc1ccccc21.[O-][Cl+3]([O-])([O-])[O-].[O-][Cl+3]([O-])([O-])[O-] (stereo not shown) [Chemical Formula 24] | 
about 220 °C | 1.66 |  | CCN1C(=CC=CC2=[N+](C)c3ccc4ccccc4c3C2(C)Cc2ccc(CC3(C)C(C=CC=C4N(CC)c5ccc6ccccc6c5C4(C)Cc4ccccc4)=[N+](C)c4ccc5ccccc5c43)cc2)C(C)(Cc2ccccc2)c2c1ccc1ccccc21.F[P-](F)(F)(F)(F)F.F[P-](F)(F)(F)(F)F (stereo not shown) [Chemical Formula 36] | 64
 | 1.10 |  | CCN1C(=CC=CC2=[N+](CC)c3ccc4ccccc4c3C2(C)C)C(C)(C)c2c1ccc1ccccc21 [Chemical Formula 65, reference compound] | 73
 | 0.82 | relatively low solubility in TFP | CCN1C(=CC=CC2=[N+](CC)c3ccc4ccccc4c3C23CCCCC3)C(C)(C)c2c1ccc1ccccc21 [Chemical Formula 66] | 58
 | 0.44 | relatively low solubility in TFP | CCN1C(=CC=CC2=[N+](CCCCCC[N+]3=C(C=CC=C4N(CC)c5ccc6ccccc6c5C4(C)C)C(C)(C)c4c3ccc3ccccc43)c3ccc4ccccc4c3C2(C)C)C(C)(C)c2c1ccc1ccccc21 [Chemical Formula 67] | 60
 |  |  | CCN1C(=CC=CC2=[N+](CC)c3ccc4ccccc4c3C2(C)Cc2ccccc2)C(C)(Cc2ccccc2)c2c1ccc1ccccc21 (stereo not shown) [Chemical Formula 68, reference compound] | 50
